The results in this text go back to paper PMC8151276, “An Integrated Approach toward NanoBRET Tracers for Analysis of GPCR Ligand Engagement” (Molecules, 2021).

Common to all, as to format: binding
For one assay, the target named is T1, C5AR2 (Homo sapiens, UniProt Q9P296).
T1 construct: purchased Promega (in-house HiBiT-GPCR construct library, NanoBRET)
As to the kind of experiment: NanoBRET screen HiBiT-C5AR2 in HEK293. The method, then:
(§1) Each tracer candidate was screened across the entire library of HiBiT-GPCR constructs using NanoBRET as the detection modality. As depicted in Figure 4A, the specificity of interactions was evaluated through decrease in BRET due to competitive displacement of a bound tracer by excess parental compound. Each tracer was analyzed for binding to each HiBiT-GPCR fusion in the absence and in the presence of competing parental compound. Briefly, HEK293 cells were transfected with HiBiT-GPCR constructs diluted into promoterless DNA to reduce expression and maximize translocation to the cell surface. Each tracer candidate was then screened at concentrations of 1 μM and 0.1 μM across cells expressing these fusions. Cells were treated for 1.5 h with tracer either alone or in the presence of 20 μM competing parental compound (i.e., control). BRET was measured upon addition of purified LgBiT and subsequent complementation with HiBiT genetically fused to a GPCR. The specificity of interactions was assessed through a decrease in BRET signal due to competitive displacement of the bound tracer. To further gauge the robustness of these interactions, the fold response over the control (i.e., BRETtracer/BRETcontrol) was calculated. We chose a 1.5-fold response, which translates to ≥7-fold signal over noise as the minimal threshold required to score an interaction as positive. […]. Below we highlight the screening results obtained for our exemplary fluorescent tracers based on Clozapine, Amitriptyline and AZD1283.
(§2) HiBiT-GPCR DNA constructs were diluted in 10 mM Tris pH 8 to a final concentration of 0.01 μg/μL, arrayed in 96-well plates and stored at −20 °C. For transfection, HEK293 cells were suspended in Opti-MEM (without phenol red) supplemented with 2% fetal bovine serum (Seradigm) and 100 units/mL penicillin–streptomycin (Gibco) at a final concentration of 220,000 cells/mL and dispensed into white 96-well plates at 90 μL/well. Subsequent transfections and screens were carried using an Agilent Bravo Automated Liquid Handling Platform. First, the 96-well HiBiT DNA arrays were diluted 25-fold in Opti-MEM (without serum or phenol red) to a final concentration of 0.0004 μg/μL and 20 μL of the diluted DNAs were transferred into new 96-well plates. Next, promoterless carrier DNA (1 μg/μL) was diluted 25-fold (0.04 μg/μL) and then dispensed into the diluted arrays at 20 μL/well. Following brief mixing, Viafect transfection reagent (Promega) diluted 16-fold into Opti-MEM was dispensed into the plates at 40 μL/well. After mixing by pipetting, plates were incubated for 10 min on the pipetting station deck. The DNA-transfection reagent complexes were then added to plates containing cells. To facilitate the screen, 10 μL of DNA-transfection reagent complexes were added in duplicates to the top 4 and bottom 4 rows, resulting in two identical 48-well arrays per plate. Plates with transfected cells were incubated for 18–20 h at 37 °C/5% CO2. A screen of each tracer across the entire library using two different concentrations requires duplicate plates of transfected cells. Depending on the number of tracers being screened, transfections can be scaled up using the same ratios. The next day, for each tracer, four 20× screening solutions in tracer dilution buffer (Promega) were prepared: two duplicates at final concentration of 20 μM and two duplicates at a final concentration of 2 μM. A competing unmodified compound was added to one of each duplicate at a final concentration of 400 μM. The four resulting solutions were diluted 4-fold in Opti-MEM without serum or phenol red to generate 5× solutions (5 µM and 0.5 µM tracer +/− 100 μM competing compound). To screen the library, a BioTek MultiFlo FX liquid dispenser was used to dispense 22.5 µL of tracer solution to the top 4 rows and 22.5 µL tracer + competing compound solution to the 4 bottom rows. Plates were briefly mixed on an orbital shaker and incubated for 1.5 h at room temperature. […]

In the next assay the target is T2, CCR8 (Homo sapiens, UniProt P51685).
T2 construct: purchased Promega (in-house HiBiT-GPCR construct library, NanoBRET)
T2 sequence (P51685 whole entry): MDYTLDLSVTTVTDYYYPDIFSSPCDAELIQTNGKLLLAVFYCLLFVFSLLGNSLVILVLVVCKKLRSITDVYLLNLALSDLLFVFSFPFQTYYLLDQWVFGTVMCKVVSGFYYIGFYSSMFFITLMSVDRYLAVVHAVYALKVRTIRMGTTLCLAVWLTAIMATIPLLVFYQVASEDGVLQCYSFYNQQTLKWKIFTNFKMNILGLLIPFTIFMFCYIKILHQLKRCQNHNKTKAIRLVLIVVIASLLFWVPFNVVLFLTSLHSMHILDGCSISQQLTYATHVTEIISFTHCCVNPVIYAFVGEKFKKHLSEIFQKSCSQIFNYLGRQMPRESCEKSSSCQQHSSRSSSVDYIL
As to the kind of experiment: NanoBRET screen HiBiT-CCR8 in HEK293. As for the experimental part:
as §1, §2
Background: BRET reads energy transfer from a luciferase to a nearby fluorophore.

For a further assay, the target named is T3, OXTR (Homo sapiens, UniProt P30559).
T3 construct: purchased Promega (in-house HiBiT-GPCR construct library, NanoBRET)
T3 sequence (P30559 1-389): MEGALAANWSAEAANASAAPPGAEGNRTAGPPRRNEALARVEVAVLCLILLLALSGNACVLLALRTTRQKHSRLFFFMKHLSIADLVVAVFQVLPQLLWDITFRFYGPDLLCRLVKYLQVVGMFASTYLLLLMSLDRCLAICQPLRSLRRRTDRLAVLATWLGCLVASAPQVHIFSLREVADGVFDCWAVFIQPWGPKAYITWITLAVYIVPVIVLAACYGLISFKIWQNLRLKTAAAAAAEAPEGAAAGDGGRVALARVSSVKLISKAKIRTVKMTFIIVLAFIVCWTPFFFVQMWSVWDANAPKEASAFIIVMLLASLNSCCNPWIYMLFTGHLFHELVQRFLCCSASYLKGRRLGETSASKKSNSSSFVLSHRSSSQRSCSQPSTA
As to the kind of experiment: NanoBRET screen HiBiT-OXTR in HEK293. As for the experimental part:
as §1, §2

The target of the next assay is T4, NPY2R (Homo sapiens, UniProt P49146).
T4 construct: purchased Promega (in-house HiBiT-GPCR construct library, NanoBRET)
T4 sequence (P49146 1-381): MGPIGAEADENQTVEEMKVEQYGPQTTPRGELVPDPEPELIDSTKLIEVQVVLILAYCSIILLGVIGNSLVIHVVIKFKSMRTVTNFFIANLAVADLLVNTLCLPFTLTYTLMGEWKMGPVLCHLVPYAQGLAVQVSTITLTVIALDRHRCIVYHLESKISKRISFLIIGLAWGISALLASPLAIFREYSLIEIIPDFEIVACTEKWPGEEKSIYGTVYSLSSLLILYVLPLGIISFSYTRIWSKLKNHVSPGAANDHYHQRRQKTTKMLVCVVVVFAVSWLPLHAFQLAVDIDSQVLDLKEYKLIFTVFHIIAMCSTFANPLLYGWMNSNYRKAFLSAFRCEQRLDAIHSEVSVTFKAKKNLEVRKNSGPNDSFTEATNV
Kind of assay: NanoBRET screen HiBiT-NPY2R in HEK293. As for the experimental part: as §1, §2

T1 sequence (Q9P296 whole entry): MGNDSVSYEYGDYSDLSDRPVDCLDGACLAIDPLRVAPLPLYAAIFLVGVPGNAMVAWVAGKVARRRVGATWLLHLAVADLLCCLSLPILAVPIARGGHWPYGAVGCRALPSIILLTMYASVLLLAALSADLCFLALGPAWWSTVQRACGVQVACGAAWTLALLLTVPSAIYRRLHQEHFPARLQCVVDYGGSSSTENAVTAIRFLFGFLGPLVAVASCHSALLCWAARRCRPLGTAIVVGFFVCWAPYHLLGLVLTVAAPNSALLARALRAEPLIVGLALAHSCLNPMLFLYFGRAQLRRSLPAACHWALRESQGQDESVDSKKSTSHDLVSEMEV

As for `O=C(CCOCCOCCOCCOCCNC(=O)CCc1ccc2n1[B-](F)(F)[N+]1=C(c3ccc[nH]3)C=CC1=C2)NCCCN1CCN(C2=Nc3ccccc3Oc3ccc(Cl)cc32)CC1` [Loxapine-a-2-NB590], the “NanoBRET Fold Response” value on C5AR2 (C5AR2, tracer 0.1μM) turned out to be 0.95; at C5AR2 (C5AR2, tracer 1μM) it was 1.07; at CCR8 (CCR8, tracer 0.1μM), 1.02; at CCR8 (CCR8, tracer 1μM), 1.10; on OXTR (OXTR, tracer 0.1μM) it was 0.97; at OXTR (OXTR, tracer 1μM), 1.02. Also, the “NanoBRET Fold Response” value is 1.02 on NPY2R (NPY2R, tracer 0.1μM) and 1.17 on NPY2R (NPY2R, tracer 1μM).
Regarding `CCCn1c(=O)c2[nH]c(-c3ccc(OCC(=O)NCCNC(=O)CCOCCNC(=O)c4ccc(CNC(=O)CCc5ccc6n5[B-](F)(F)[N+]5=C(c7ccc[nH]7)C=CC5=C6)cc4)cc3)nc2n(CCC)c1=O` [XAC-3-NB590], the “NanoBRET Fold Response” value at C5AR2 (C5AR2, tracer 0.1μM) worked out at 1.02; on C5AR2 (C5AR2, tracer 1μM) it was 1.01; on CCR8 (CCR8, tracer 0.1μM) it was 0.90; on CCR8 (CCR8, tracer 1μM), 0.93; on OXTR (OXTR, tracer 0.1μM) it was 1.04; at OXTR (OXTR, tracer 1μM) it was 0.98. The “NanoBRET Fold Response” value was found to be 0.93 at NPY2R (NPY2R, tracer 0.1μM) and 1.03 on NPY2R (NPY2R, tracer 1μM).
In the case of `CN(C)CCC=C1c2ccccc2CCc2ccc(C(=O)NCCNC(=O)CCOCCOCCOCCOCCNC(=O)CCc3ccc4n3[B-](F)(F)[N+]3=C(c5ccc[nH]5)C=CC3=C4)cc21` [Amitriptyline-a-2-NB590], the “NanoBRET Fold Response” value on C5AR2 (tracer at 0.1μM) worked out at 1.11; at C5AR2 (tracer at 1μM), 1.01; on CCR8 (tracer at 0.1μM), 0.94; at CCR8 (tracer at 1μM) it was 0.97; at OXTR (tracer at 0.1μM), 0.99; on OXTR (tracer at 1μM), 1.09. The results for the “NanoBRET Fold Response” value on NPY2R (tracer at 0.1μM) and at NPY2R (tracer at 1μM) were 0.99 and 0.98, respectively.
For the compound `CCOC(=O)c1cc(C#N)c(N2CCC(C(=O)NS(=O)(=O)Cc3ccccc3/C=C/C(=O)NCCNC(=O)CCc3ccc4n3[B-](F)(F)[N+]3=C(c5ccc[nH]5)C=CC3=C4)CC2)nc1C` [AZD1283-1-NB590], the “NanoBRET Fold Response” value on C5AR2 (C5AR2, 0.1μM) is 0.97; on C5AR2 (C5AR2, 1μM) it was 1.12; on CCR8 (CCR8, 0.1μM), 1.04; at CCR8 (CCR8, 1μM), 1.18; at OXTR (OXTR, 0.1μM) it was 1.07; on OXTR (OXTR, 1μM), 1.07. Further, the “NanoBRET Fold Response” value was determined as 1.04 at NPY2R (NPY2R, 0.1μM) and 1.07 at NPY2R (NPY2R, 1μM).
